Measurements as given in PMC6149751, “Spiro[pyrrolidine-3,3′-oxindoles] and Their Indoline Analogues as New 5-HT6 Receptor Chemotypes” (Molecules : A Journal of Synthetic Chemistry and Natural …, 2017).
Read-outs that look alike come from different tables or passages of the source.

Experiments:
Type in all cases: binding
[1] = target: T1, 5-HT6R (Homo sapiens, UniProt P50406); experiment: [3H]-LSD displacement, HEK293 membranes
T1 construct: gene HTR6; full-length human receptor stably expressed in HEK293 cells; membranes
Excerpt: [3H]-LSD displacement, HEK293 membranes on 5-HT6R

[2] = target: T2, 5-HT7bR (Homo sapiens, UniProt P34969); experiment: [3H]-5-CT displacement, HEK293 membranes
T2 construct: gene HTR7; human splice isoform 5-HT7b stably expressed in HEK293 cells; membranes
Excerpt: [3H]-5-CT displacement, HEK293 membranes on 5-HT7bR

[3] = target: T3, 5-HT2AR (Homo sapiens, UniProt P28223); experiment: [3H]-Ketanserin displacement, CHO-K1 membranes
T3 construct: gene HTR2A; full-length human receptor expressed from plasmid in CHO-K1 cells (PerkinElmer); membranes
Excerpt: [3H]-Ketanserin displacement, CHO-K1 membranes on 5-HT2AR

[4] = target: T4, 5-HT1AR (Homo sapiens, UniProt P08908); experiment: [3H]-8-OH-DPAT displacement, HEK293 membranes
T4 construct: gene HTR1A; full-length human receptor stably expressed in HEK293 cells; membranes
T4 sequence (P08908 1-422): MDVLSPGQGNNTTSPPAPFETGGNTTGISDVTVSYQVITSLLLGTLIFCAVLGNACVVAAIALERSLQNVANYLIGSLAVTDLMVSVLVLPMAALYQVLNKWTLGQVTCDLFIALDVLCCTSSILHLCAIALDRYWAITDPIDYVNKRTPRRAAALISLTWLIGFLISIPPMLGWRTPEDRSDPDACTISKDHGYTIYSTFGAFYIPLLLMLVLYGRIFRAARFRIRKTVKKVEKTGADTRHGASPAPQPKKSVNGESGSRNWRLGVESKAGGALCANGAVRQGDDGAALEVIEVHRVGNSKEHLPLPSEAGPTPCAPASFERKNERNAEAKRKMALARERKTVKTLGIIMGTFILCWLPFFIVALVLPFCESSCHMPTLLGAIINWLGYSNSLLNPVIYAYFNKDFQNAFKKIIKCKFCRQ
Excerpt: [3H]-8-OH-DPAT displacement, HEK293 membranes on 5-HT1AR

T3 sequence (P28223 whole entry): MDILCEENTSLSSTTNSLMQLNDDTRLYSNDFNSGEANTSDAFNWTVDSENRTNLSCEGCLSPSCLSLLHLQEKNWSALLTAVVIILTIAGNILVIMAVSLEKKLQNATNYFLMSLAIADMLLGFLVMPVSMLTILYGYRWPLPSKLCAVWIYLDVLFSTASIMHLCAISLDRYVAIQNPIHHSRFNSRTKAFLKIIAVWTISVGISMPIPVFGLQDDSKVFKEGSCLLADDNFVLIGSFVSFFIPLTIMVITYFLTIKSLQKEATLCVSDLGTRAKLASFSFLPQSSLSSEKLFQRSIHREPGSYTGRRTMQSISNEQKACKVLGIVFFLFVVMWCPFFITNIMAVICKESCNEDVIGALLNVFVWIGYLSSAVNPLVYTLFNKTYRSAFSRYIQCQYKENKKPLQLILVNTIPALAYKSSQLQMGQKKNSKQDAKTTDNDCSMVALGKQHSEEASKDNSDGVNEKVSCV
T2 sequence (P34969 1-432): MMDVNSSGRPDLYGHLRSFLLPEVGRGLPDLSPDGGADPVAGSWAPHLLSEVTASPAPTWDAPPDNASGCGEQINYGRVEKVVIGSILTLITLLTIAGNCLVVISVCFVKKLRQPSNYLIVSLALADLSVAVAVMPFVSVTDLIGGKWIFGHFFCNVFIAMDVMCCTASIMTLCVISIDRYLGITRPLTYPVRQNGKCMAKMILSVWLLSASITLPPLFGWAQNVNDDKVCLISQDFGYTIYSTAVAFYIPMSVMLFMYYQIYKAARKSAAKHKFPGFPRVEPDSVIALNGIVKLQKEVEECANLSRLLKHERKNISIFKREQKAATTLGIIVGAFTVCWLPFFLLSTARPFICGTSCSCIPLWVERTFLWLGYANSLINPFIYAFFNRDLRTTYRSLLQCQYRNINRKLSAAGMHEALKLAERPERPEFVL
T1 sequence (P50406 whole entry): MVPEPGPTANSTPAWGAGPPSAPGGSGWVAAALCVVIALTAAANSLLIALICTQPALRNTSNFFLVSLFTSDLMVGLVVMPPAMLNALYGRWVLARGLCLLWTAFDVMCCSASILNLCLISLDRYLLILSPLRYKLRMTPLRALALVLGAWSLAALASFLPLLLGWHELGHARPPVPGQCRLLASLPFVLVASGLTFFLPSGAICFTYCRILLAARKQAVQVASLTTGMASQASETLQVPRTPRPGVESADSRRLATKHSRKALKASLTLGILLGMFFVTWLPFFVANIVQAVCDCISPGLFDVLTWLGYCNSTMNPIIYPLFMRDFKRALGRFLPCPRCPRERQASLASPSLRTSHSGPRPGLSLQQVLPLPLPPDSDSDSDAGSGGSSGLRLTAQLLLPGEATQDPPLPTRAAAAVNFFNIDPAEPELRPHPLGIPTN

Structure (SMILES) | Ki [1] | Ki [2] | Ki [3] | Ki [4] | Ki ([1]; read-out: 5-HT6) | Ki ([3]; read-out: 5-HT2A) | Ki ([2]; read-out: 5-HT7) | Ki ([4]; read-out: 5-HT1A)
N#Cc1cccnc1Oc1ccc(C2NCCC23C(=O)Nc2ccccc23)cc1 (centres unmarked) [compound 11, 11] | 6.2 µM | 59 µM | 8.68 µM | 49.1 µM | – | – | – | –
CCN1CCC2(C1)CN(S(=O)(=O)c1ccccc1)c1ccccc12 (centres unmarked) [40b, 1′-Ethyl-1-(phenylsulfonyl)spiro[indoline-3,3′-pyrrolidine]] | – | – | – | – | 2.42 µM | 3.82 µM | – | –
O=C1Nc2ccc(F)cc2C12CCNC2c1ccc(F)c(Cl)c1 (centres unmarked) [compound 16, 16] | 16.5 µM | – | 53.9 µM | – | – | – | – | –
CC(C)c1ccc(C2NCCC23C(=O)Nc2ccccc23)cc1 (centres unmarked) [compound 14, 14] | 8.62 µM | 8.98 µM | 4.54 µM | 7.76 µM | – | – | – | –
O=S(=O)(c1ccc(F)cc1)N1CC2(CCN(Cc3ccccc3)C2)c2ccccc21 (centres unmarked) [46c, 1′-Benzyl-1-((4-fluorophenyl)sulfonyl)spiro[indoline-3,3′-pyrrolidine]] | – | – | – | – | 2.45 µM | – | 56.1 µM | –
O=S(=O)(c1ccccc1)N1CC2(CCN(Cc3ccccc3F)C2)c2ccccc21 (centres unmarked) [44a, 1′-(2-Fluorobenzyl)-1-(phenylsulfonyl)spiro[indoline-3,3′-pyrrolidine]] | 4.53 µM | 78.9 µM | – | – | – | – | – | –
O=C1Nc2ccccc2C12CCNC2c1cccc2cccnc12 (centres unmarked) [compound 12, 12] | 6.63 µM | 10.5 µM | 1.12 µM | 45.7 µM | – | – | – | –
CN1CCC2(C1)CN(S(=O)(=O)c1ccccc1)c1ccccc12 (centres unmarked) [40a, 1′-Methyl-1-(phenylsulfonyl)spiro[indoline-3,3′-pyrrolidine]] | – | – | – | – | 1.85 µM | 4.52 µM | 40.2 µM | –
O=S(=O)(c1ccccc1)N1CC2(CCN(Cc3ccc(F)cc3)C2)c2ccccc21 (centres unmarked) [44c, 1′-(4-Fluorobenzyl)-1-(phenylsulfonyl)spiro[indoline-3,3′-pyrrolidine]] | – | – | – | – | 1.77 µM | – | 15.7 µM | –
O=S(=O)(c1ccccc1F)N1CC2(CCN(Cc3ccccc3)C2)c2ccccc21 (centres unmarked) [46a, 1′-Benzyl-1-((2-fluorophenyl)sulfonyl)spiro[indoline-3,3′-pyrrolidine]] | – | – | – | – | 0.19 µM | – | 42.6 µM | –
O=C1Nc2ccccc2C12CCN(S(=O)(=O)c1ccccc1)C2 (centres unmarked) [compound 18, 1′-(Phenylsulfonyl)spiro[indoline-3,3′-pyrrolidin]-2-one] | 6.86 µM | – | 87.4 µM | – | – | – | – | –
COc1cc(C2NCCC23C(=O)Nc2ccccc23)ccc1OC(F)F (centres unmarked) [compound 13, 13] | 7.73 µM | 7.49 µM | 5.77 µM | 7.14 µM | – | – | – | –
Cn1c(=O)n(C)c2cc(C3NCCC34C(=O)Nc3ccccc34)ccc21 (centres unmarked) [compound 15, 15] | 9.49 µM | 46.7 µM | 23.7 µM | 40.5 µM | – | – | – | –
O=C1Nc2ccccc2C12CCNC2c1ccc(OCc2ccc(F)cc2)cc1 (centres unmarked) [compound 8, 8] | 3.18 µM | 1.09 µM | 2.28 µM | 1.74 µM | – | – | – | –
O=C1Nc2ccccc2C12CCNC2c1ccc2c(c1)OCCO2 (centres unmarked) [compound 10, 10] | 4.11 µM | 12.7 µM | 4.33 µM | 12.1 µM | – | – | – | –
O=C1Nc2ccccc2C12CCNC2c1ccc2c(c1)OCO2 (centres unmarked) [compound 9, 9] | 3.2 µM | 8.82 µM | 2.69 µM | 9.84 µM | – | – | – | –
COc1ccc(C2NCCC23C(=O)Nc2ccccc23)cc1OC (centres unmarked) [compound 7, 7] | 2.26 µM | 2.69 µM | 5.45 µM | 7.07 µM | – | – | – | –
O=C1N(S(=O)(=O)c2ccccc2)c2ccccc2C12CCNC2 (centres unmarked) [compound 17, 1-(Phenylsulfonyl)spiro[indoline-3,3′-pyrrolidin]-2-one] | – | – | – | – | 12.3 µM | – | 58.3 µM | –
O=C1Nc2ccccc2C12CCNC2c1cccc(F)c1 (centres unmarked) [compound 6, 2′-(3-fluorophenyl)spiro[indoline-3,3′-pyrrolidin]-2-one] | – | – | – | – | 6.75 µM | 5.05 µM | 8.48 µM | 16.9 µM
O=S(=O)(c1ccccc1)N1CC2(CCN(Cc3ccncc3)C2)c2ccccc21 (centres unmarked) [39b, 1-(Phenylsulfonyl)-1′-(pyridin-4-ylmethyl)spiro[indoline-3,3′-pyrrolidine]] | 6.6 µM | – | 26.9 µM | – | – | – | – | –
O=S(=O)(c1ccccc1)N1CC2(CCN(Cc3ccccc3)C2)c2ccccc21 (centres unmarked) [39a, 1′-Benzyl-1-(phenylsulfonyl)spiro[indoline-3,3′-pyrrolidine]] | – | – | – | – | 0.76 µM | 4.76 µM | 55.8 µM | –
O=S(=O)(c1cccc(F)c1)N1CC2(CCN(Cc3ccccc3)C2)c2ccccc21 (centres unmarked) [46b, 1′-Benzyl-1-((3-fluorophenyl)sulfonyl)spiro[indoline-3,3′-pyrrolidine]] | – | – | – | – | 0.71 µM | – | 76 µM | –
O=S(=O)(c1ccccc1)N1CC2(CCN(Cc3cccc(F)c3)C2)c2ccccc21 (centres unmarked) [44b, 1′-(3-Fluorobenzyl)-1-(phenylsulfonyl)spiro[indoline-3,3′-pyrrolidine]] | – | – | – | – | 1.97 µM | – | 31.5 µM | –
